Assay results as given in US7893260B2, “Substituted quinazolin-4-one compounds for antagonizing TRPV3 function” (priority 2005, dated 2011).

Legend:
[1] = Plasma levels / pharmacokinetics after IV or oral administration; type: in vivo, male Sprague-Dawley rats; settings: PO suspension 50 mg/kg, rat
Experimental: (§1) The plasma levels of a TRPV3 inhibitor (compound 82) were determined via HPLC/MS/MS following administration to male Sprague-Dawley rats.
To evaluate pharmacokinetic properties of this TRPV3 inhibitor, rats were administered a single intravenous (IV) bolus dose of […] or an oral dose of a suspension of 50 mg/kg. For intraveneous administration, the TRPV3 inhibitor solution was formulated in PBS/NaOH, pH 10.5, at a target concentration of 0.25 mg/mL. This solution was administered as a rapid bolus (2-3 seconds) at a dose volume of 4 mL/kg via the tail vein of conscious rats or via a jugular vein catheter in anesthetized rats. For oral administration, the TRPV3 inhibitor was formulated as a uniform suspension in CMC (carboxymethylcellulose) at a target concentration of 5 mg/mL, and administered by oral gavage at a dose volume of 10 mL/kg to conscious rats.

[2] = test system: carrageenan model of acute inflammatory pain; assay: Carrageenan model of acute inflammatory pain (thermal hyperalgesia, Hargreaves); type: in vivo, rats
Experimental: As outlined above, the carrageenan model is a model of acute inflammatory pain. As such, it may be used to evaluate effectiveness in relieving pain caused by inflammation, for example, pain due to arthritis.
Briefly, naive rats were pretested for sensitivity to a heat stimulus using the Hargreaves apparatus. The next day, 100 μL of λ-carrageenan was injected into the plantar surface of the right hindpaw approximately 4.5 hours before testing. 30-60 minutes before testing the rats were injected intraperitoneally with vehicle or drug (to evaluate the efficacy of a TRPV3 inhibitor administered IP) or were administered vehicle or drug orally (PO; to evaluate the efficacy of a TRPV3 inhibitor administered orally).
In this study, the drug administered was either a TRPV3 inhibitor (compound 82), the TRPV1 inhibitor, A-425619 (produced by Abbott; maximal efficacious dose, 40 mg/kg IP; El Kouhen et al, 2005, J Pharmacol Exp Ther 314: 400-4091; Honore et al., 2005, J Pharmacol Exp Ther 314: 410-421), or the non-steroidal anti-inflammatory diclofenac. Following administration of both carrageenan and drug or vehicle control, the thermal escape latency was measured. Data are expressed as a percentage comparing the recorded Paw Withdrawal Latencies (PWLs) in seconds to that pre-carrageenan administration.

rat TRPV3 = target: T1, rat TRPV3 (Rattus norvegicus, UniProt Q4QYD9); assay: Whole-cell patch clamp, cells expressing rat TRPV3; type: cell-based; settings: rat TRPV3 IC50 converted to mass concentration
T1 construct: expressed in transfected cells
T1 sequence (Q4QYD9 1-791): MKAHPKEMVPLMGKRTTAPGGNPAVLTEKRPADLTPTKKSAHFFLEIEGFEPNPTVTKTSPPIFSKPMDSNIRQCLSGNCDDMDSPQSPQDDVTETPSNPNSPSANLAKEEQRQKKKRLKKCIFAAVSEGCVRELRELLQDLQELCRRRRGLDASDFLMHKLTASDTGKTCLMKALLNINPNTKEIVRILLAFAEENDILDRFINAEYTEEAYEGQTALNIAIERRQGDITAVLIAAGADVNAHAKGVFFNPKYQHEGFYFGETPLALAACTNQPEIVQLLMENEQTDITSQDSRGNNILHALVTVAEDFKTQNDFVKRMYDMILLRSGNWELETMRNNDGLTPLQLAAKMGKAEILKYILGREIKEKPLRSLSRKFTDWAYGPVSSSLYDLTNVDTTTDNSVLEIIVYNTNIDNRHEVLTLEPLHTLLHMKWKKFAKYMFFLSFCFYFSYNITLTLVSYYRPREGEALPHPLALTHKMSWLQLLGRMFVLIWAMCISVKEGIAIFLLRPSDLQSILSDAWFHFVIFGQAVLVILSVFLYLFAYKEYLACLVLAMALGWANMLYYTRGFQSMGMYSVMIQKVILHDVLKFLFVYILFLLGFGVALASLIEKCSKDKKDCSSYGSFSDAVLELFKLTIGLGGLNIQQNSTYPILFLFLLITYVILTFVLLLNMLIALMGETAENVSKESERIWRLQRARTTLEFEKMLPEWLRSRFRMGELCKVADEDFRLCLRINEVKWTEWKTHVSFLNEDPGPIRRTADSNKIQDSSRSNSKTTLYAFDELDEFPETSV
Text: (§2) Whole-cell patch clamp experiments permit the detection of currents through the TRPV3 channel in the cell line described above. A glass electrode is brought into contact with a single cell and the membrane is then ruptured, permitting control of the voltage of the cell membrane and measurement of currents flowing across the membrane using the amplifier attached to the electrode. A perfusion system permits control of the extracellular solution, including the addition of blockers and activators of the current. The current can be activated by heating this solution to 28° C. or warmer or by addition of 20 μM 2-APB to the solution.
(§3) TRPV3 cells were induced 20-48 hours, removed from growth plates, and replated at low density (to attain good single-cell physical separation) on glass coverslips for measurement. In some cases, cells were grown in low density overnight on glass coverslips. Patch clamp recordings were made in the whole-cell mode with a holding potential of −40 mV. […] Currents elicited were quantified at −80 mV and +80 mV. The internal solution consisted of 140 mM cesium aspartate, 10 mM EGTA, 2.27 mM MgCl2, 1.91 mM CaCl2 and 10 mM HEPES, pH to 7.2 with KOH; with 50 nM calculated free Ca^2+. […]
as §1

[3] = Plasma, brain and CSF levels after IP or PO administration; type: in vivo; settings: 0.5, 1, 4 hours post IP 200 or 50 mg/kg or PO 200 mg/kg, rats
Text: For each time point evaluated, plasma levels are depicted by the left-most bar, brain levels are depicted by the center bar, and CSF levels are depicted by the right-most bar. […] For each time point evaluated, plasma levels are depicted by the left-most bar, brain levels are depicted by the center bar, and CSF levels are depicted by the right-most bar. […] For each time point evaluated, plasma levels are depicted by the left-most bar, brain levels are depicted by the center bar, and CSF levels are depicted by the right-most bar.

human TRPV3 = target: T2, human TRPV3 (Homo sapiens, UniProt Q8NET8); assay: Whole-cell patch clamp, cells expressing human TRPV3; type: cell-based; settings: human TRPV3 IC50 converted to mass concentration
T2 construct: expressed in transfected cells; host or cells: HEK293/TREx (Invitrogen), tetracycline-inducible
T2 sequence (Q8NET8 1-790): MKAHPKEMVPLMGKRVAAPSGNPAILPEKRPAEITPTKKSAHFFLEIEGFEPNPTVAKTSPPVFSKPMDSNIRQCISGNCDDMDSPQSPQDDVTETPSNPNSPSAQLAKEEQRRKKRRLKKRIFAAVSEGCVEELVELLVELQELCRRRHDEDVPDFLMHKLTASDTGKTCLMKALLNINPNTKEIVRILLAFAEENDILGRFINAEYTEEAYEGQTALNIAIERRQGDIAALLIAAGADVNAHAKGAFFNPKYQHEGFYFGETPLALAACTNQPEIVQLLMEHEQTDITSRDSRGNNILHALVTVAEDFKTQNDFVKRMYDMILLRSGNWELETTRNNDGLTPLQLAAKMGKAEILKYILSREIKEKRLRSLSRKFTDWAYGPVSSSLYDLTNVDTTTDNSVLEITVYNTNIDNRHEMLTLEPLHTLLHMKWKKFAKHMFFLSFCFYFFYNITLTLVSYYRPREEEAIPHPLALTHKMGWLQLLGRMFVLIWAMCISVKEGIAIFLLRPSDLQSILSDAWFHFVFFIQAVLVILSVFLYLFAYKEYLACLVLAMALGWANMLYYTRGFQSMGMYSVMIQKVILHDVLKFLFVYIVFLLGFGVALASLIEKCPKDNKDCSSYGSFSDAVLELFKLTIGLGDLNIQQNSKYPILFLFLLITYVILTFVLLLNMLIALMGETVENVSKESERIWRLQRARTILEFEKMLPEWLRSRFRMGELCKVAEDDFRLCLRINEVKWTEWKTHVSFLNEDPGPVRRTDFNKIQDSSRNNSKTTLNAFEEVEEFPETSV
Text: as §2, §3, §1

In the case of COc1cccc(/C=C/c2nc3ccccc3c(=O)n2-c2ccccc2)c1O [compound 82], the “estimated half-life (T1/2)” value [1] is reported as “one”, the “reduction of thermal hyperalgesia in carrageenan model” value (from here on “reduction of thermal hyperalgesia”) ([2]; IP, 50 mg/kg) is reported as “effective” and the “reduction of thermal hyperalgesia” value ([2]; IP, 200 mg/kg) is reported as “effective”. For the same compound, the “reduction of thermal hyperalgesia” value ([2]; oral, 200 mg/kg) was “effective”, the “reducing pain in the carrageenan model” value ([2]; rats, thermal hyperalgesia) was “efficacious in reducing pain” and the “effective concentration corresponding to IC50” value (rat TRPV3) was ~0.105 mg/L. The “detection in plasma, brain and CSF (central penetration)” value [3] was “detected not only in plasma, but also in brain and CSF” and the “effective concentration corresponding to IC50” value (human TRPV3) was “approximately 94 ng/mL”.
